Experimental data reported in publication PMC9087011 (Clinical Pharmacology and Therapeutics, 2022).

What was measured:
[1] = clinical; settings: human, in vivo
[2] = tested on: SARS‐CoV‐2; settings: oral administration; cited from earlier work
[3] = 500 mg single dose, fasted, no ritonavir; individual values (N2=2)
[4] = tested on: SARS‐CoV‐2 viral replication; settings: in vitro EC90 adjusted for plasma protein binding; cited from earlier work
[5] = Overall safety and tolerability; assay type: in vivo, human; settings: for Safety and tolerability (overall): SAD, MAD and supratherapeutic cohorts, healthy participants
[6] = tested on: cytochrome P450 3A4 (CYP3A4); settings: cited from earlier work

CC(C)(C)[C@H](NC(=O)C(F)(F)F)C(=O)N1C[C@H]2[C@@H]([C@H]1C(=O)N[C@H](C#N)C[C@@H]1CCNC1=O)C2(C)C [Nirmatrelvir]
Tmax [1]: 1 h
Cmax ([1]; 150 mg): 668 ng/mL
Tmax ([1]; 150 mg): 0.634 h
Cmax ([1]; 500 mg): 674 ng/mL
Tmax ([1]; 500 mg): 1 h
Effect on pulmonary viral titers [2]: dose‐dependent reduction of pulmonary viral titers
AUCinf [3]: 5,450 ng hour/mL
t ½ [3]: 25.6 h
total plasma EC90 (90% inhibition of SARS‐CoV‐2 viral replication) [4]: 0.292 µg/mL
Safety and tolerability (overall) [5]: safe and well‐tolerated
Safety and tolerability (overall) ([5]; listed as nirmatrelvir): no safety concerns were identified
Changes in laboratory values (≥ grade 2), vital sign or ECG measurements ([5]; with or without ritonavir): No clinically meaningful changes
Metabolism [6]: primarily metabolized by cytochrome P450 3A4 (CYP3A4)
